Measured values reported in publication PMC3757949 (Nature medicine, 2012).

Tests used:
GLP-1R [1] = target: T1, GLP-1R (Homo sapiens, UniProt P43220); experiment: GLP-1R activation, CRE-luciferase reporter gene assay in HEK 293 cells; assay type: cell-based
DIO mice = experiment: Body weight in diet-induced obese; assay type: in vivo; conditions: DIO male mice
MCF-7 xenografts = experiment: Tumor growth in MCF-7 xenograft OVX nude mice; assay type: in vivo; conditions: for volume of harvested tumors / weight of harvested tumors: after 9 weeks of treatment, mean ± s.e.m.; for tumor incidence at day 68: conjugates 4,000 μg per kg body weight daily, estradiol as s.c. pellet
ERα and ERβ = assay type: cell-based, human
GLP-1R [2] = target: T1, GLP-1R; experiment: GLP-1R competitive binding
[3] = Conjugate degradation analysis in human plasma; assay type: in vitro ADME; conditions: pH 7.4, 37 °C

T1 sequence (P43220 24-463, species assumed): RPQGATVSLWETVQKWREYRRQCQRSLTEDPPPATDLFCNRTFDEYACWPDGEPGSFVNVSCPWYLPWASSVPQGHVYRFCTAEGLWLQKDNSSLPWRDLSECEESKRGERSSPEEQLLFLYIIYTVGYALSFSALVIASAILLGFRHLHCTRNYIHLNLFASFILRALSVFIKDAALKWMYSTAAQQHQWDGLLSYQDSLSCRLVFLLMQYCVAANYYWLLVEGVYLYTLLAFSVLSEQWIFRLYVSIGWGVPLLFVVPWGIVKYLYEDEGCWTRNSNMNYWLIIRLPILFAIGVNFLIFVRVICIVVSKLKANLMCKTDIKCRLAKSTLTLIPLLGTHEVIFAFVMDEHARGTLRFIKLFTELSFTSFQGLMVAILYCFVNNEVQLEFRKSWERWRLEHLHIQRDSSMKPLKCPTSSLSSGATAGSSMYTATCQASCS

Compound: CCCCCCCCCCCCCCCC(=O)N[C@@H](CCC(=O)N[C@@H](CCC(=O)NCCCC[C@H](NC(=O)[C@H](CO)NC(=O)[C@@H]1CCCN1C(=O)[C@@H]1CCCN1C(=O)[C@@H]1CCCN1C(=O)[C@H](C)NC(=O)CNC(=O)[C@H](CO)NC(=O)[C@H](CO)NC(=O)[C@@H]1CCCN1C(=O)CNC(=O)CNC(=O)[C@H](CCCCN)NC(=O)[C@@H](NC(=O)[C@H](CC(C)C)NC(=O)[C@H](Cc1c[nH]c2ccccc12)NC(=O)[C@H](C)NC(=O)[C@@H](NC(=O)[C@H](Cc1ccccc1)NC(=O)[C@H](CCC(=O)O)NC(=O)[C@H](CCCCN)NC(=O)[C@H](C)NC(=O)[C@H](C)NC(=O)[C@H](CCC(N)=O)NC(=O)[C@H](CCC(=O)O)NC(=O)[C@H](CCC(=O)O)NC(=O)[C@H](CC(C)C)NC(=O)[C@H](Cc1ccc(O)cc1)NC(=O)[C@H](CO)NC(=O)[C@H](CO)NC(=O)[C@@H](NC(=O)[C@H](CC(=O)O)NC(=O)[C@H](CO)NC(=O)[C@@H](NC(=O)[C@H](Cc1ccccc1)NC(=O)[C@@H](NC(=O)CNC(=O)[C@H](CCC(=O)O)NC(=O)C(C)(C)NC(=O)[C@@H](N)Cc1c[nH]cn1)[C@@H](C)O)[C@@H](C)O)C(C)C)[C@@H](C)CC)C(C)C)C(N)=O)C(=O)O)C(=O)O [acylated GLP-1 analog]
- fold lower GLP-1R potency in presence of plasma (GLP-1R [1]; 20% human plasma versus no plasma): ~ 400 fold
- body weight loss (DIO mice; 400 μg per kg body weight daily s.c., 14 d (Fig. 5d)): 30.1%

Compound: C[C@]12CC[C@@H]3c4ccc(O)cc4CC[C@H]3[C@@H]1CC[C@@H]2O [estradiol, 17β-estradiol, reference compound]
- volume of harvested tumors (MCF-7 xenografts): 1,461.2 ± 584.3 mm^3
- weight of harvested tumors (MCF-7 xenografts): 779.7 ± 257.7 mg
- tumor incidence at day 68 (MCF-7 xenografts): 100%
- EC50 (ERα and ERβ; read-out: EC50, intracellular estrogen activity (ERE-mediated transcriptional activity), mean ± s.d.): 4 ± 1 pM

Compound: CC[C@H](C)[C@H](NC(=O)[C@H](Cc1ccccc1)NC(=O)[C@H](CCC(=O)O)NC(=O)[C@H](CCCCN)NC(=O)[C@H](C)NC(=O)[C@H](C)NC(=O)[C@H](CCC(N)=O)NC(=O)[C@H](CCC(=O)O)NC(=O)[C@H](CCC(=O)O)NC(=O)[C@H](CC(C)C)NC(=O)[C@H](Cc1ccc(O)cc1)NC(=O)[C@H](CO)NC(=O)[C@H](CO)NC(=O)[C@@H](NC(=O)[C@H](CC(=O)O)NC(=O)[C@H](CO)NC(=O)[C@@H](NC(=O)[C@H](Cc1ccccc1)NC(=O)[C@@H](NC(=O)CNC(=O)[C@H](CCC(=O)O)NC(=O)C(C)(C)NC(=O)[C@@H](N)Cc1c[nH]cn1)[C@@H](C)O)[C@@H](C)O)C(C)C)C(=O)N[C@@H](C)C(=O)N[C@@H](Cc1c[nH]c2ccccc12)C(=O)N[C@@H](CC(C)C)C(=O)N[C@H](C(=O)N[C@@H](CCCCN)C(=O)NCC(=O)NCC(=O)N1CCC[C@H]1C(=O)N[C@@H](CO)C(=O)N[C@@H](CO)C(=O)NCC(=O)N[C@@H](C)C(=O)N1CCC[C@H]1C(=O)N1CCC[C@H]1C(=O)N1CCC[C@H]1C(=O)N[C@@H](CO)C(=O)N[C@@H](CCCCNC(=O)CCC(=O)Oc1ccc2c(c1)CC[C@@H]1[C@@H]2CC[C@]2(C)C(=O)CC[C@@H]12)C(N)=O)C(C)C [labile GLP-1–estrogen conjugate]
- volume of harvested tumors (MCF-7 xenografts): 92.1 ± 23.8 mm^3
- weight of harvested tumors (MCF-7 xenografts): 37.0 ± 9.0 mg
- tumor incidence at day 68 (MCF-7 xenografts): 100%
- GLP-1R binding affinity (IC50) compared to parent peptide (GLP-1R [2]): matched the parent peptides
- GLP-1R biochemical signaling potency (EC50) compared to parent peptide (GLP-1R [1]): matched the parent peptides
- time to complete degradation with release of estrogen [3]: ≤ 6 h
- decrease in body weight (DIO mice; 400 μg per kg body weight daily s.c., 2 weeks): 7.5%
- body weight at end of treatment (DIO mice; 400 μg per kg body weight daily s.c., 2 weeks, mean ± s.e.m.): 50.0 ± 1.1 g
- body weight at start of treatment (DIO mice; 400 μg per kg body weight, mean ± s.e.m.): 54.1 ± 0.9 g
- intracellular estrogen activity compared to estrone (ERα and ERβ; cells do not express GLP-1R): comparable intracellular estrogen activity to estrone
